The target of assay [1] is T1, FGFR2 V564F (Homo sapiens, UniProt P21802, V564F).
T1 construct: P41212 (Transcription factor ETV6)
Briefly: Cell proliferation assay for Tel-FGFR2 V564F in BaF3. In kind it is cell-based. The note with it: BaF3 cells expressing FGFR2 V564F fusion, 48 hrs, CellTiter Glo. The procedure:
By transfection, cell strains of the intracellular kinase domain fusion protein of TEL-FGFR2 WT or the intracellular domain fusion proteins containing FGFR2 V564, V564F, V564L, N549K and K659M mutations were stably expressed in Baf cells. On day 1, the cell suspension was plated into a 96-well plate containing growth medium (DMEM containing 1% Glutamax, 10% FBS and 1% Pen/Strep) at 2000-4000 cells/90 μL/per well, and then the mixture was incubated overnight at 37° C. and 5% CO2. On day 2, 10 μL of growth medium containing a 10-fold stock solution of test compound was added to the cell culture (9 dose points, 3× serial dilution, starting from 1 μM, finally 0.3% DMSO). After incubation at 37° C. and 5% CO2 for 48 hrs, 50 μL of CellTiter Glo (CTG) reagent was added to the cell-containing 96-well plate on day 3, and the plate was then incubated at room temperature for 10 min. Then relative light units (RLUs) were measured on a microplate reader with a luminescence detection module. RLU values were normalized to % survival, and concentration-response curves were plotted using Prism to calculate IC50 (nM).
For orientation: In ATP-based viability assays light output follows the ATP content of the culture.

For assay [2], the target named is T2, FGFR3 V555M (Homo sapiens, UniProt P22607, V555M).
T2 construct: P41212 (Transcription factor ETV6)
T2 sequence (P22607 472-761 V555M limits assumed): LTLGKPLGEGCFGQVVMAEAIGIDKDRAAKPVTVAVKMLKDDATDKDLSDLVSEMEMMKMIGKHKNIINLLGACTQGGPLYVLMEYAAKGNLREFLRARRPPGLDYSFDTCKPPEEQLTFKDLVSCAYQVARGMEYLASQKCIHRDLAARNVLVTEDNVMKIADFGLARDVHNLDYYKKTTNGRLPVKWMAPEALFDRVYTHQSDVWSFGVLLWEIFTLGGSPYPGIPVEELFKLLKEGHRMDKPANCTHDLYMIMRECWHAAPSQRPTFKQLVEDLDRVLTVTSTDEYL
Kind of assay: Cell proliferation assay for FGFR3 V555M in BaF3. The settings on record: BaF3 cells expressing FGFR3 V555M fusion, 48 hrs, CellTiter Glo. In kind it is cell-based. As for the experimental part:
For the compounds of the Examples of the present invention, cell strains of TEL-FGFR3 WT intracellular kinase domain fusion protein or intracellular domain fusion protein containing FGFR3 V555M or FGFR3 N540K mutation were stably expressed in Baf cells by transfection and were used to determine the cell proliferation effect of BaF3-Tel-FGFR3 WT. FGFR3 V555M or FGFR3 N540K. The specific test process was as follows: • 1) The cell suspension was plated into a 96-well plate containing growth medium (DMEM containing 1% Glutamax, 10% FBS and 1% Pen/Strep) at 2000-4000 cells/90 μL/per well, and then the mixture was incubated overnight at 37° C. and 5% CO2. • 2) 10 μL of growth medium containing a 10-fold stock solution of test compound was added to the cell culture (9 dose points, 3× serial dilution, starting from 1 μM, finally 0.3% DMSO). • 3) The mixture was incubated at 37° C. and 5% CO2 for 48 hrs. • 4) 50 μL of CellTiter Glo (CTG) reagent was added to the cell-containing 96-well plate, and the plate was then incubated at room temperature for 10 min. • 5) Relative light units (RLUs) were measured on a microplate reader with a luminescence detection module. RLU values were normalized to % survival, and concentration-response curves were plotted using Prism to calculate IC50 (nM).

T1 sequence (P21802 481-770 V564F limits assumed): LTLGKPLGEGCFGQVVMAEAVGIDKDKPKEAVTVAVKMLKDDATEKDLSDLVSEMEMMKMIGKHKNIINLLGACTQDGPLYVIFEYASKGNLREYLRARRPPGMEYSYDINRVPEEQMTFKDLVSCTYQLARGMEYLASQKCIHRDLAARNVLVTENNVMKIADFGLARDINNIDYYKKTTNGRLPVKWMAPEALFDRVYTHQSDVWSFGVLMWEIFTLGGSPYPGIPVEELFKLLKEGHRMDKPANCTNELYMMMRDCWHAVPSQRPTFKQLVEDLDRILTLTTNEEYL

For `C=CC(=O)N1CC[C@H](n2cc(C#Cc3c(F)cc4oc(N5CCC5)nc4c3F)c3c(N)ncnc32)C1` [Example 73, (S)-1-(3-(4-amino-5-((2-(azetidin-1-yl)-4,6-difluoro-benzo[d]oxazol-5-yl)ethynyl)-7H-pyrrolo[2,3-d]pyrimidin-7-yl)pyrrolidin-1-yl) prop-2-en-1-one], the half-maximal inhibitory concentration (IC50) – broadly, the concentration at which inhibition is half-maximal – is ≤ 0.5 nM in assay [1] and 0.5 to 5 nM in assay [2].

Take `C=CC(=O)N1CC[C@H](n2nc(C#Cc3cc4nc(NC)oc4cc3F)c3c(N)ncnc32)C1` [Example 29, (S)-1-(3-(4-amino-3-((6-fluoro-2-(methylamino)benzo[d]oxazol-5-yl)ethynyl)-1H-pyrazolo[3,4-d]pyrimidin-1-yl)pyrrolidin-1-yl) prop-2-en-1-one]: the half-maximal inhibitory concentration (IC50) in assay [1] fell in the range of 0.5 to 5 nM; in assay [2], 5 to 50 nM.

On to `C=CC(=O)N1CC[C@H](n2cc(C#Cc3cc4nc(C5CC5)oc4cc3F)c3c(N)ncnc32)C1` [Example 65, (S)-1-(3-(4-amino-5-((2-cyclopropyl-6-fluorobenzo [d]oxazol-5-yl)ethynyl)-7H-pyrrolo[2,3-d]pyrimidin-7-yl)pyrrolidin-1-yl)prop-2-en-1-one], for which the IC50 was ≤ 0.5 nM in assay [1] and 0.5 to 5 nM in assay [2].

`C=CC(=O)N1CC[C@H](n2cc(C#Cc3cc4nc(C(F)(F)F)oc4cc3F)c3c(N)ncnc32)C1` [Example 72, (S)-1-(3-(4-amino-5-((6-fluoro-2-(trifluoromethyl)benzo[d]oxazol-5-yl)ethynyl)-7H-pyrrolo[2,3-d]pyrimidin-7-yl)pyrrolidin-1-yl) prop-2-en-1-one]: the concentration for half-maximal inhibition (IC50) is 5 to 50 nM in assay [1] and 50 to 500 nM in assay [2].

In assay [1], `C=CC(=O)N1CC[C@H](n2nc(C#Cc3ccc4oc(C5(C)CC5)nc4c3)c3c(N)ncnc32)C1` [Example 39, (S)-1-(3-(4-amino-3-((2-(1-methylcyclopropyl)benzo [d]oxazol-5-yl)ethynyl)-1H-pyrazolo[3,4-d]pyrimidin-1-yl)pyrrolidin-1-yl) prop-2-en-1-one] yielded a half-inhibitory concentration (IC50) of 0.5 to 5 nM.

With `C=CC(=O)N1CC[C@H](n2cc(C#Cc3ccc4oc(C(C)C)nc4c3)c3c(N)ncnc32)C1` [Example 4, (S)-1-(3-(4-amino-5-((2-isopropylbenzo[d]oxazol-5-yl)ethynyl)-7H-pyrrolo[2,3-d]pyrimidin-7-yl)pyrrolidin-1-yl)prop-2-en-1-one], the IC50 in assay [1] is 0.5 to 5 nM.

Turning to `C=CC(=O)N1CC[C@H](n2cc(C#Cc3ccc4sc(C5CC5)nc4c3)c3c(N)ncnc32)C1` [Example 43, (S)-1-(3-(4-amino-5-((2-cyclopropylbenzo[d]thiazol-5-yl)ethynyl)-7H-pyrrolo [2,3-d]pyrimidin-7-yl)pyrrolidin-1-yl)prop-2-en-1-one], the IC50 in assay [1] is 0.5 to 5 nM.

On to `C=CC(=O)N1CC[C@H](n2nc(C#Cc3cc4nc(C(F)F)sc4cc3F)c3c(N)ncnc32)C1` [Example 60, (S)-1-(3-(4-amino-3-((2-(difluoromethyl)-6-fluoro-benzo[d]thiazol-5-yl)ethynyl)-1H-pyrazolo[3,4-d]pyrimidin-1-yl)pyrrolidin-1-yl)prop-2-en-1-one], for which, in assay [1], the IC50 fell in the range of 0.5 to 5 nM.

Consider `C=CC(=O)N1CCC(c2cc(C#Cc3ccc4sc(C)nc4c3)c3c(N)ncnn23)C1` (stereo not drawn) [Example 70, 1-(3-(4-amino-5-((2-methyl-benzo[d]thiazol-5-yl)ethynyl)pyrrolo[2,1-f][1,2,4]triazin-7-yl)pyrrolidin-1-yl) prop-2-en-1-one], for which the IC50 in assay [1] was in the range of 0.5 to 5 nM.

`C=CC(=O)N1CC[C@H](n2cc(C#Cc3ccc4oc(C(F)(F)F)nc4c3)c3c(N)ncnc32)C1` [Example 76, (S)-1-(3-(4-amino-5-((2-(trifluoromethyl)benzo[d]oxazol-5-yl)ethynyl)-7H-pyrrolo[2,3-d]pyrimidin-7-yl)pyrrolidin-1-yl)prop-2-en-1-one] showed a 50% inhibitory concentration (IC50) in assay [2] of 50 to 500 nM.

In assay [1], `C=CC(=O)N1CC[C@H](n2cc(C#Cc3ccc4oc(C5CCC5)nc4c3)c3c(N)ncnc32)C1` [Example 5, (S)-1-(3-(4-amino-5-((2-cyclobutylbenzo[d]oxazol-5-yl)ethynyl)-7H-pyrrolo [2,3-d]pyrimidin-7-yl)pyrrolidin-1-yl)prop-2-en-1-one] came in with an IC50 of 0.5 to 5 nM.
